{"source": "patent US9206164B2", "about": "“Pyrazole compounds as CRTH2 antagonists” (Boehringer Ingelheim International GmbH, priority 2011, dated 2015)"}
{"target": "human CRTH2 receptor (Homo sapiens (Human), UniProt Q9Y5Y4)", "sequence (Q9Y5Y4 whole entry)": "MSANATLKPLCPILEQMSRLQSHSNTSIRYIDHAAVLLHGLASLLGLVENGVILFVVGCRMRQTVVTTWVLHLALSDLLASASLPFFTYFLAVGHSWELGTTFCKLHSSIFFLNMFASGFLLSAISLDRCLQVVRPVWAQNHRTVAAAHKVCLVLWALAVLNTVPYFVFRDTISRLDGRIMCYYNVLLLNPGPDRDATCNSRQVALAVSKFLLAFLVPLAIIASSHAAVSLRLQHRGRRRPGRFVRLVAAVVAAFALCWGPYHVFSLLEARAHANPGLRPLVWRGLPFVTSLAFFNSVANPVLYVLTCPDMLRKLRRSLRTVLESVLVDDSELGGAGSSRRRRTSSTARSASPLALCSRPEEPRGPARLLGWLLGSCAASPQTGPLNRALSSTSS", "test": "CRTH2 receptor radioligand binding assay (SPA, [3H]-PGD2 displacement)", "details": "antagonistic activities of selected compounds", "description": "The binding of CRTH2 antagonists is determined using membranes prepared from Chinese hamster ovary cells (CHO-K1 cells) transfected with the human CRTH2 receptor (CHO-K1-hCRTH2 cells, Perkin Elmer, Cat No ES-561-C). To produce cell membranes the CHO-K1-hCRTH2 cells are cultured in suspension in CHO SFMII medium supplemented with 400 μg/ml G418. The cells are harvested by centrifugation at 300 g for 10 min at room temperature. The cell pellet is resuspended in Phosphate Buffer Saline (PBS) including a protease inhibitor mix (Complete, Roche) and adjusted to a concentration of 10E7 cells/ml. The CHO-K1-hCRTH2 cells are disrupted by nitrogen […] to obtain the membrane preparation. Cell debris is removed by centrifugation (500 g at 4° C., 30 min) and the supernatant is transferred into fresh tubes followed by a second centrifugation at 40000 g for 1 h at 4° C. to sediment the membranes. The membranes are suspended in SPA incubation buffer (50 mM Tris HCl, 10 mM MgCl2, 150 mM NaCl, 1 mM EDTA, pH 7.4) without bovine serum albumin, homogenized by passing through a single use needle (Terumo, 23G×1″), and stored in aliquots at −80° C.\nThe CRTH2 receptor binding assay is performed in a scintillation proximity assay (SPA) format with the radioligand [^3H]-PGD2 (Perkin Elmer, NET616000MC). CHO-K1-hCRTH2 cell membranes are again homogenized by passing through a single use needle (Terumo, 23G×1″) and diluted in SPA incubation buffer in suitable concentrations (0.5-10 μg protein/well). The SPA assay is set up in 96 well microtiter plates (Perkin Elmer, CatNo. 6005040) in SPA incubation buffer with a final volume of 200 μl per well and final concentration of 50 mM Tris-HCl, 10 mM MgCl2, 150 mM NaCl, 1 mM EDTA pH 7.4, 0.1% bovine serum albumin). The SPA assay mixture contains 60 μl of the membrane suspension, 80 μl of Wheat Germ Agglutinin coated PVT beads (GE Healthcare, RPNQ-0001, 0.3 mg/well), 40 μl of [^3H]-PGD2 diluted in SPA buffer to a final concentration of 1 nM (50 000 dpm) and 20 μl of the test compound (dissolved in dimethylsulfoxid). The SPA assay mixture is incubated for 3 h at room temperature. Bound radioactivity is determined with a scintillation counter (Micro Beta Trilux, Wallac).\nThe binding of [^3H]-PGD2 to CHO-K1-hCRTH2 cell membranes is determined in the absence (total binding, Bo) and presence (non-specific binding, NSB) of unlabelled PGD2 (1 μM, Cayman Chemical, Cat No 12010) or a reference CRTH2 antagonist (10 μM CAY10471, Cayman Chemical, Cat No 10006735).\nDetermination of the affinity of a test compound is calculated by subtraction of the non-specific binding (NSB) from the total binding (Bo) or the binding in the presence of the test compound (B) at a given compound concentration. The NSB value is set to 100% inhibition. The Bo−NSB value is set to 0% inhibition.\n% inhibition values were obtained at a defined compound concentration, e.g. at 1 μM, % inhibition of the test compound was calculated by the formula 100−((B−NSB)*100/(Bo−NSB)). % inhibition values above 100% are founded by assay variance.", "units": {"Ki": "nM"}}
{"compound": "Cc1nn(Cc2ccc(-c3nc4c(C)cccc4[nH]3)cc2)c(C)c1CC(=O)O", "note": "[Compound 63]", "Ki": 10}
{"compound": "CCc1nn(Cc2ccc(-c3nc4nc(OC)ccc4[nH]3)cc2)c(CC)c1CC(=O)O", "note": "[Compound 64]", "Ki": 3.1}
{"compound": "CCc1nn(Cc2ccc(-c3nc4c(Cl)cc(Cl)cc4[nH]3)cc2)c(CC)c1CC(=O)O", "note": "[Compound 65]", "Ki": 0.4}
{"compound": "Cc1nn(Cc2ccc(-c3nc4c(Cl)cc(Cl)cc4[nH]3)cc2)c(C)c1CC(=O)O", "note": "[Compound 66]", "Ki": 1}
{"compound": "CCc1nn(Cc2ccc(-c3nc4c(F)cccc4[nH]3)cc2)c(CC)c1CC(=O)O", "note": "[Compound 67]", "Ki": 1.7}
{"compound": "CCc1nn(Cc2ccc(-c3nc4cc(C(C)(C)C)ccc4[nH]3)cc2)c(CC)c1CC(=O)O", "note": "[Compound 68]", "Ki": 0.2}
{"compound": "CCc1nn(Cc2ccc(-c3nc4cc(Cl)ccc4n3C)cc2)c(CC)c1CC(=O)O", "note": "[Compound 69]", "Ki": 61.2}
{"compound": "Cc1nn(Cc2ccc(-c3nc4cncnc4[nH]3)cc2)c(C)c1CC(=O)O", "note": "[Compound 70]", "Ki": 432}
{"compound": "Cc1nn(Cc2ccc(-c3nc4cc(F)ccc4[nH]3)cc2)c(C)c1CC(=O)O", "note": "[Compound 71]", "Ki": 8.5}
{"compound": "Cc1nn(Cc2ccc(-c3nc4ccncc4[nH]3)cc2F)c(C)c1CC(=O)O", "note": "[Compound 72]", "Ki": 636}
{"compound": "Cc1nn(Cc2ccc(-c3nc4c(Cl)cc(Cl)cc4[nH]3)cc2F)c(C)c1CC(=O)O", "note": "[Compound 73]", "Ki": 2.5}
{"compound": "CCc1nn(Cc2ccc(-c3nc4c(F)cccc4[nH]3)cc2F)c(CC)c1CC(=O)O", "note": "[Compound 74]", "Ki": 1.2}
{"compound": "CCc1nn(Cc2ccc(-c3nc4cc(OC)ccc4[nH]3)cc2F)c(CC)c1CC(=O)O", "note": "[Compound 75]", "Ki": 1}
{"compound": "CCc1nn(Cc2ccc(-c3nc4cc(F)c(Cl)cc4[nH]3)cc2F)c(CC)c1CC(=O)O", "note": "[Compound 76]", "Ki": 0.6}
{"compound": "Cc1nn(Cc2ccc(-c3nc4c(F)cc(F)cc4[nH]3)cc2F)c(C)c1CC(=O)O", "note": "[Compound 77]", "Ki": 5.5}
{"compound": "Cc1nn(Cc2ccc(-c3nc4cc(C#N)ccc4[nH]3)cc2F)c(C)c1CC(=O)O", "note": "[Compound 78]", "Ki": 21.7}
{"compound": "CCc1nn(Cc2ccc(-c3nc4nc(OC)ccc4[nH]3)cc2F)c(CC)c1CC(=O)O", "note": "[Compound 79]", "Ki": 1.3}
{"compound": "CCc1nn(Cc2ccc(-c3nc4cc(Cl)ccc4[nH]3)cc2F)c(CC)c1CC(=O)O", "note": "[Compound 80]", "Ki": 0.5}
{"compound": "CCc1nn(Cc2ccc(-c3nc4cc(C#N)ccc4[nH]3)cc2F)c(CC)c1CC(=O)O", "note": "[Compound 81]", "Ki": 2.6}
{"compound": "CCc1nn(Cc2ccc(-c3nc4cc(F)ccc4[nH]3)cc2F)c(CC)c1CC(=O)O", "note": "[Compound 82]", "Ki": 1}
{"compound": "CCc1nn(Cc2ccc(-c3nc4c(C)cccc4[nH]3)cc2F)c(CC)c1CC(=O)O", "note": "[Compound 83]", "Ki": 1.3}
{"compound": "CCc1nn(Cc2ccc(-c3nc4c(F)c(F)ccc4[nH]3)cc2F)c(CC)c1CC(=O)O", "note": "[Compound 84]", "Ki": 0.8}
{"compound": "Cc1nn(Cc2ccc(-c3nc4cncc(C)c4[nH]3)cc2F)c(C)c1CC(=O)O", "note": "[Compound 85]", "Ki": 683}
{"compound": "Cc1nn(Cc2ccc(-c3nc4cc(F)ccc4[nH]3)cc2F)c(C)c1CC(=O)O", "note": "[Compound 86]", "Ki": 6.5}
{"compound": "CCc1nn(Cc2ccc(-c3nc4cc(Br)ccc4[nH]3)cc2F)c(CC)c1CC(=O)O", "note": "[Compound 87]", "Ki": 0.4}
{"compound": "CCc1nn(Cc2ccc(-c3nc4cc(Br)cnc4[nH]3)cc2F)c(CC)c1CC(=O)O", "note": "[Compound 89]", "Ki": 2.6}
{"compound": "CCc1nn(Cc2ccc(-c3nc4ccncc4[nH]3)cc2F)c(CC)c1CC(=O)O", "note": "[Compound 90]", "Ki": 60.9}
{"compound": "Cc1ccc2[nH]c(-c3ccc(Cn4nc(C)c(CC(=O)O)c4C)c(F)c3)nc2c1", "note": "[Compound 91]", "Ki": 3.7}
{"compound": "COc1ccc2[nH]c(-c3ccc(Cn4nc(C)c(CC(=O)O)c4C)c(F)c3)nc2n1", "note": "[Compound 92]", "Ki": 0.7}
{"compound": "Cc1nn(Cc2ccc(-c3nc4c(C)cccc4[nH]3)cc2F)c(C)c1CC(=O)O", "note": "[Compound 93]", "Ki": 12.8}
{"compound": "Cc1nn(Cc2ccc(-c3nc4cc(Br)ccc4[nH]3)cc2F)c(C)c1CC(=O)O", "note": "[Compound 94]", "Ki": 1.6}
{"compound": "CCc1nn(Cc2ccc(-c3nc4cc(Cl)cnc4[nH]3)cc2F)c(CC)c1CC(=O)O", "note": "[Compound 95]", "Ki": 5.1}
{"compound": "COc1ccc2[nH]c(-c3ccc(Cn4nc(C)c(CC(=O)O)c4C)c(F)c3)nc2c1", "note": "[Compound 96]", "Ki": 5.7}
{"compound": "Cc1nn(Cc2ccc(-c3nc4cc(C(C)(C)C)ccc4[nH]3)cc2F)c(C)c1CC(=O)O", "note": "[Compound 97]", "Ki": 0.9}
{"compound": "CCc1nn(Cc2ccc(-c3nc4cc(C(C)(C)C)ccc4[nH]3)cc2F)c(CC)c1CC(=O)O", "note": "[Compound 98]", "Ki": 0.1}
{"compound": "Cc1nn(Cc2ccc(-c3nc4c(F)cccc4[nH]3)cc2F)c(C)c1CC(=O)O", "note": "[Compound 99]", "Ki": 9.7}
{"compound": "Cc1nn(Cc2ccc(-c3nc4cc(Cl)cnc4[nH]3)cc2F)c(C)c1CC(=O)O", "note": "[Compound 100]", "Ki": 18.5}
{"compound": "CCc1nn(Cc2ccc(-c3nc4c(F)cc(F)cc4[nH]3)cc2F)c(CC)c1CC(=O)O", "note": "[Compound 101]", "Ki": 1.1}
{"compound": "Cc1nn(Cc2ccc(-c3nc4cc(F)c(Cl)cc4[nH]3)cc2F)c(C)c1CC(=O)O", "note": "[Compound 102]", "Ki": 2.1}
{"compound": "CCc1nn(Cc2ccc(-c3nc4cncc(C)c4[nH]3)cc2F)c(CC)c1CC(=O)O", "note": "[Compound 103]", "Ki": 87.6}
{"compound": "CCc1nn(Cc2ccc(-c3nc4c(Cl)cc(Cl)cc4[nH]3)cc2F)c(CC)c1CC(=O)O", "note": "[Compound 104]", "Ki": 0.7}
{"compound": "Cc1nn(Cc2ccc(-c3nc4c(F)c(F)ccc4[nH]3)cc2F)c(C)c1CC(=O)O", "note": "[Compound 105]", "Ki": 5.1}
{"compound": "CCc1nn(Cc2ccc(-c3nc4cc(C)c(Cl)cc4[nH]3)cc2F)c(CC)c1CC(=O)O", "note": "[Compound 106]", "Ki": 0.3}
{"compound": "Cc1nn(Cc2ccc(-c3nc4cccnc4[nH]3)cc2F)c(C)c1CC(=O)O", "note": "[Compound 107]", "Ki": 87.4}
{"compound": "Cc1nn(Cc2ccc(-c3nc4cc(Cl)ccc4[nH]3)cc2F)c(C)c1CC(=O)O", "note": "[Compound 108]", "Ki": 2.3}
{"compound": "Cc1cc2nc(-c3ccc(Cn4nc(C)c(CC(=O)O)c4C)c(F)c3)[nH]c2cc1Cl", "note": "[Compound 109]", "Ki": 1.8}
{"compound": "Cc1nn(Cc2cccc(-c3nc4cc(C(F)(F)F)ccc4[nH]3)c2)c(C)c1CC(=O)O", "note": "[Compound 110]", "Ki": 287}
{"compound": "Cc1nn(Cc2ccc(-c3nc4cc(C(F)(F)F)ccc4[nH]3)cc2F)c(C)c1CC(=O)O", "note": "[Compound 111]", "Ki": 2.5}
{"compound": "(3,5-Diethyl-1-[2-fluoro-4-(3H-imidazo[4,5-b]pyridin-2-yl)benzyl]-1H-pyrazol-4-yl)acetic Acid [Compound 13]", "Ki": 16.2}
